Results as given in article PMC4411097, “Pachymic Acid Inhibits Growth and Induces Apoptosis of Pancreatic Cancer In Vitro and In Vivo by Targeting ER Stress” (PLoS ONE, 2015).

Tested on: MIA PaCa-2 cells
Assay: DNA microarray analysis (Affymetrix Human PrimeView)
Assay type: cell-based

C=C(CC[C@@H](C(=O)O)[C@H]1[C@H](O)C[C@@]2(C)C3=C(CC[C@]12C)[C@@]1(C)CC[C@H](OC(C)=O)C(C)(C)[C@@H]1CC3)C(C)C [PA, Pachymic acid]
Fold-Change (MiaPaca-2 * PA vs. MiaPaca-2 * control), HSPA1B (probeset 11729120_x_at): 1.90 | Mean (MiaPaca-2 * PA), HSPA1B (probeset 11729120_x_at): 11.15 | Fold-Change (MiaPaca-2 * PA vs. MiaPaca-2 * control), ADAMTS4 (probeset 11730923_x_at): 2.20 | Mean (MiaPaca-2 * PA), ADAMTS4 (probeset 11730923_x_at): 8.77 | Fold-Change (MiaPaca-2 * PA vs. MiaPaca-2 * control), RCAN1 (probeset 11733797_a_at): 1.68 | Mean (MiaPaca-2 * PA), RCAN1 (probeset 11733797_a_at): 9.17 | Fold-Change (MiaPaca-2 * PA vs. MiaPaca-2 * control), SOCS2 (probeset 11735148_a_at): 1.78 | Mean (MiaPaca-2 * PA), SOCS2 (probeset 11735148_a_at): 6.08 | Fold-Change (MiaPaca-2 * PA vs. MiaPaca-2 * control), C17orf91 (probeset 11736304_a_at): 1.70 | Mean (MiaPaca-2 * PA), C17orf91 (probeset 11736304_a_at): 6.00 | Fold-Change (MiaPaca-2 * PA vs. MiaPaca-2 * control), C17orf91 (probeset 11736305_x_at): 1.71 | Mean (MiaPaca-2 * PA), C17orf91 (probeset 11736305_x_at): 6.44 | Fold-Change (MiaPaca-2 * PA vs. MiaPaca-2 * control), SERPINB8 (probeset 11737922_a_at): 2.08 | Mean (MiaPaca-2 * PA), SERPINB8 (probeset 11737922_a_at): 8.90 | Fold-Change (MiaPaca-2 * PA vs. MiaPaca-2 * control), FLJ36031 (probeset 11739443_a_at): 1.69 | Mean (MiaPaca-2 * PA), FLJ36031 (probeset 11739443_a_at): 6.38 | Fold-Change (MiaPaca-2 * PA vs. MiaPaca-2 * control), TNFRSF9 (probeset 11740393_at): 2.27 | Mean (MiaPaca-2 * PA), TNFRSF9 (probeset 11740393_at): 8.01 | Fold-Change (MiaPaca-2 * PA vs. MiaPaca-2 * control), GBP3 (probeset 11741911_a_at): 1.86 | Mean (MiaPaca-2 * PA), GBP3 (probeset 11741911_a_at): 6.08 | Fold-Change (MiaPaca-2 * PA vs. MiaPaca-2 * control), CXCL2 (probeset 11744127_at): 2.45 | Mean (MiaPaca-2 * PA), CXCL2 (probeset 11744127_at): 10.98 | Fold-Change (MiaPaca-2 * PA vs. MiaPaca-2 * control), CXCL2 (probeset 11744128_x_at): 2.30 | Mean (MiaPaca-2 * PA), CXCL2 (probeset 11744128_x_at): 11.01 | Fold-Change (MiaPaca-2 * PA vs. MiaPaca-2 * control), HSPA1A (probeset 11744413_x_at): 2.45 | Mean (MiaPaca-2 * PA), HSPA1A (probeset 11744413_x_at): 10.47 | Fold-Change (MiaPaca-2 * PA vs. MiaPaca-2 * control), SAMD4A (probeset 11745209_a_at): 1.79 | Mean (MiaPaca-2 * PA), SAMD4A (probeset 11745209_a_at): 6.54 | Fold-Change (MiaPaca-2 * PA vs. MiaPaca-2 * control), SERPINE1 (probeset 11746856_a_at): 1.78 | Mean (MiaPaca-2 * PA), SERPINE1 (probeset 11746856_a_at): 7.81 | Fold-Change (MiaPaca-2 * PA vs. MiaPaca-2 * control), UPP1 (probeset 11747820_x_at): 1.93 | Mean (MiaPaca-2 * PA), UPP1 (probeset 11747820_x_at): 8.45 | Fold-Change (MiaPaca-2 * PA vs. MiaPaca-2 * control), SERPINB8 (probeset 11748180_a_at): 2.13 | Mean (MiaPaca-2 * PA), SERPINB8 (probeset 11748180_a_at): 10.10 | Fold-Change (MiaPaca-2 * PA vs. MiaPaca-2 * control), UPP1 (probeset 11748775_a_at): 1.75 | Mean (MiaPaca-2 * PA), UPP1 (probeset 11748775_a_at): 10.33 | Fold-Change (MiaPaca-2 * PA vs. MiaPaca-2 * control), FOS (probeset 11749291_a_at): 1.74 | Mean (MiaPaca-2 * PA), FOS (probeset 11749291_a_at): 6.87 | Fold-Change (MiaPaca-2 * PA vs. MiaPaca-2 * control), GBP1 (probeset 11749773_x_at): 1.92 | Mean (MiaPaca-2 * PA), GBP1 (probeset 11749773_x_at): 5.41 | Fold-Change (MiaPaca-2 * PA vs. MiaPaca-2 * control), CYR61 (probeset 11749905_a_at): 2.32 | Mean (MiaPaca-2 * PA), CYR61 (probeset 11749905_a_at): 9.84 | Fold-Change (MiaPaca-2 * PA vs. MiaPaca-2 * control), HSPA1A /// HSPA1B (probeset 11750411_x_at): 2.09 | Mean (MiaPaca-2 * PA), HSPA1A /// HSPA1B (probeset 11750411_x_at): 10.73 | Fold-Change (MiaPaca-2 * PA vs. MiaPaca-2 * control), MIR17HG (probeset 11752442_a_at): 1.88 | Mean (MiaPaca-2 * PA), MIR17HG (probeset 11752442_a_at): 6.16 | Fold-Change (MiaPaca-2 * PA vs. MiaPaca-2 * control), GBP1 (probeset 11752931_x_at): 1.83 | Mean (MiaPaca-2 * PA), GBP1 (probeset 11752931_x_at): 5.47 | Fold-Change (MiaPaca-2 * PA vs. MiaPaca-2 * control), EGR1 (probeset 11752940_a_at): 1.69 | Mean (MiaPaca-2 * PA), EGR1 (probeset 11752940_a_at): 10.59 | Fold-Change (MiaPaca-2 * PA vs. MiaPaca-2 * control), DUSP1 (probeset 11752993_a_at): 1.78 | Mean (MiaPaca-2 * PA), DUSP1 (probeset 11752993_a_at): 7.26 | Fold-Change (MiaPaca-2 * PA vs. MiaPaca-2 * control), TNFSF4 (probeset 11753073_a_at): 1.71 | Mean (MiaPaca-2 * PA), TNFSF4 (probeset 11753073_a_at): 5.89 | Fold-Change (MiaPaca-2 * PA vs. MiaPaca-2 * control), SLC3A2 (probeset 11753435_x_at): 1.69 | Mean (MiaPaca-2 * PA), SLC3A2 (probeset 11753435_x_at): 8.06 | Fold-Change (MiaPaca-2 * PA vs. MiaPaca-2 * control), IL8 (probeset 11754026_a_at): 2.84 | Mean (MiaPaca-2 * PA), IL8 (probeset 11754026_a_at): 11.16 | Fold-Change (MiaPaca-2 * PA vs. MiaPaca-2 * control), CXCL1 (probeset 11754114_a_at): 2.46 | Mean (MiaPaca-2 * PA), CXCL1 (probeset 11754114_a_at): 11.01 | Fold-Change (MiaPaca-2 * PA vs. MiaPaca-2 * control), HBEGF (probeset 11755981_a_at): 1.90 | Mean (MiaPaca-2 * PA), HBEGF (probeset 11755981_a_at): 4.80 | Fold-Change (MiaPaca-2 * PA vs. MiaPaca-2 * control), HSPA6 /// HSPA7 (probeset 11757367_s_at): 19.93 | Mean (MiaPaca-2 * PA), HSPA6 /// HSPA7 (probeset 11757367_s_at): 9.17 | Fold-Change (MiaPaca-2 * PA vs. MiaPaca-2 * control), NFKBIZ (probeset 11757513_at): 2.08 | Mean (MiaPaca-2 * PA), NFKBIZ (probeset 11757513_at): 10.08 | Fold-Change (MiaPaca-2 * PA vs. MiaPaca-2 * control), DDIT3 (probeset 11758347_s_at): 1.70 | Mean (MiaPaca-2 * PA), DDIT3 (probeset 11758347_s_at): 7.10 | Fold-Change (MiaPaca-2 * PA vs. MiaPaca-2 * control), MIR17HG (probeset 11758429_s_at): 1.80 | Mean (MiaPaca-2 * PA), MIR17HG (probeset 11758429_s_at): 4.78 | Fold-Change (MiaPaca-2 * PA vs. MiaPaca-2 * control), TNFSF18 (probeset 11759254_at): 1.84 | Mean (MiaPaca-2 * PA), TNFSF18 (probeset 11759254_at): 8.90 | Fold-Change (MiaPaca-2 * PA vs. MiaPaca-2 * control), NCRNA00275 (probeset 11759550_at): 1.82 | Mean (MiaPaca-2 * PA), NCRNA00275 (probeset 11759550_at): 7.61 | Fold-Change (MiaPaca-2 * PA vs. MiaPaca-2 * control), SAT1 (probeset 11760200_a_at): 1.75 | Mean (MiaPaca-2 * PA), SAT1 (probeset 11760200_a_at): 6.19 | Fold-Change (MiaPaca-2 * PA vs. MiaPaca-2 * control), EBNA1BP2 (probeset 11760295_at): 1.73 | Mean (MiaPaca-2 * PA), EBNA1BP2 (probeset 11760295_at): 4.62 | Fold-Change (MiaPaca-2 * PA vs. MiaPaca-2 * control), GRAMD1B (probeset 11762010_a_at): 1.80 | Mean (MiaPaca-2 * PA), GRAMD1B (probeset 11762010_a_at): 7.49 | Fold-Change (MiaPaca-2 * PA vs. MiaPaca-2 * control), CASP1 (probeset 11763186_at): 1.70 | Mean (MiaPaca-2 * PA), CASP1 (probeset 11763186_at): 5.56 | Fold-Change (MiaPaca-2 * PA vs. MiaPaca-2 * control), IL8 (probeset 11763226_x_at): 2.95 | Mean (MiaPaca-2 * PA), IL8 (probeset 11763226_x_at): 11.12 | Fold-Change (MiaPaca-2 * PA vs. MiaPaca-2 * control), CXCL1 /// CXCL2 (probeset 11763250_x_at): 2.26 | Mean (MiaPaca-2 * PA), CXCL1 /// CXCL2 (probeset 11763250_x_at): 10.74 | Fold-Change (MiaPaca-2 * PA vs. MiaPaca-2 * control), GRAMD1B (probeset 11763323_x_at): 1.71 | Mean (MiaPaca-2 * PA), GRAMD1B (probeset 11763323_x_at): 6.75
